Test results published in PubChem BioAssay (NCI).
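Briefly, cells in 96-well plates were exposed to five compound concentrations for 48 h, and endpoints were estimated by linear interpolation. GI50 = concentration required for 50% inhibition of growth. The concentration for full growth arrest is given as TGI.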

Experiments:
Test in all cases: NCI anticancer screen, dose series, 48 h; in the data active means GI50 below about 0.43 µM; inactive means the rest
786-0 renal = tested on: 786-0 renal
A498 renal = tested on: A498 renal
A549 NSCLC = tested on: A549 NSCLC
ACHN renal = tested on: ACHN renal
CAKI-1 renal = tested on: CAKI-1 renal
CCRF-CEM leukemia = tested on: CCRF-CEM leukemia
COLO 205 colon = tested on: COLO 205 colon
DLD-1 colon = tested on: DLD-1 colon
DMS 114 small cell lung = tested on: DMS 114 small cell lung
DMS 273 small cell lung = tested on: DMS 273 small cell lung
EKVX NSCLC = tested on: EKVX NSCLC
HCC-2998 colon = tested on: HCC-2998 colon
HCT-15 colon = tested on: HCT-15 colon
HL-60(TB) leukemia = tested on: HL-60(TB) leukemia
HOP-62 NSCLC = tested on: HOP-62 NSCLC
HOP-92 NSCLC = tested on: HOP-92 NSCLC
HT29 colon = tested on: HT29 colon
IGROV1 ovarian = tested on: IGROV1 ovarian
K-562 leukemia = tested on: K-562 leukemia
KM12 colon = tested on: KM12 colon
KM20L2 colon = tested on: KM20L2 colon
LOX IMVI melanoma = tested on: LOX IMVI melanoma
LXFL 529 NSCLC = tested on: LXFL 529 NSCLC
M14 melanoma = tested on: M14 melanoma
M19-MEL melanoma = tested on: M19-MEL melanoma
MALME-3M melanoma = tested on: MALME-3M melanoma
MOLT-4 leukemia = tested on: MOLT-4 leukemia
NCI-H23 lung = tested on: NCI-H23 lung
NCI-H460 lung = tested on: NCI-H460 lung
NCI-H522 lung = tested on: NCI-H522 lung
OVCAR-3 ovarian = tested on: OVCAR-3 ovarian
OVCAR-4 ovarian = tested on: OVCAR-4 ovarian
OVCAR-5 ovarian = tested on: OVCAR-5 ovarian
OVCAR-8 ovarian = tested on: OVCAR-8 ovarian
RPMI-8226 leukemia = tested on: RPMI-8226 leukemia
RXF 393 renal = tested on: RXF 393 renal
RXF-631 renal = tested on: RXF-631 renal
SF-268 CNS = tested on: SF-268 CNS
SF-295 CNS = tested on: SF-295 CNS
SK-MEL-2 melanoma = tested on: SK-MEL-2 melanoma
SK-MEL-28 melanoma = tested on: SK-MEL-28 melanoma
SK-MEL-5 melanoma = tested on: SK-MEL-5 melanoma
SK-OV-3 ovarian = tested on: SK-OV-3 ovarian
SN12C renal = tested on: SN12C renal
SNB-75 CNS = tested on: SNB-75 CNS
SNB-78 CNS = tested on: SNB-78 CNS
SW-620 colon = tested on: SW-620 colon
TK-10 renal = tested on: TK-10 renal
U251 CNS = tested on: U251 CNS
UACC-257 melanoma = tested on: UACC-257 melanoma
UACC-62 melanoma = tested on: UACC-62 melanoma
XF 498 CNS = tested on: XF 498 CNS

CC[O-].CC[O-].O=C([CH-]C(=O)c1ccccc1)CCCCCCCCC(=O)[CH-]C(=O)c1ccccc1.[Ti+4]
active: GI50 (KM12 colon) 32 nM
inactive: GI50 (786-0 renal) > 100 µM | GI50 (A498 renal) > 100 µM | GI50 (A549 NSCLC) > 100 µM | GI50 (ACHN renal) > 100 µM | GI50 (CAKI-1 renal) > 100 µM | GI50 (CCRF-CEM leukemia) 41.8 µM | GI50 (COLO 205 colon) > 100 µM | GI50 (DLD-1 colon) > 100 µM | GI50 (DMS 114 small cell lung) 80.6 µM | GI50 (DMS 273 small cell lung) > 100 µM | GI50 (EKVX NSCLC) > 100 µM | GI50 (HCC-2998 colon) > 100 µM | GI50 (HCT-15 colon) > 100 µM | GI50 (HL-60(TB) leukemia) > 100 µM | GI50 (HOP-62 NSCLC) > 100 µM | GI50 (HOP-92 NSCLC) 67.5 µM | GI50 (HT29 colon) > 100 µM | GI50 (IGROV1 ovarian) > 100 µM | GI50 (K-562 leukemia) > 100 µM | GI50 (KM20L2 colon) > 100 µM | GI50 (LOX IMVI melanoma) > 100 µM | GI50 (LXFL 529 NSCLC) > 100 µM | GI50 (M14 melanoma) > 100 µM | GI50 (M19-MEL melanoma) > 100 µM | GI50 (MALME-3M melanoma) 73.6 µM | GI50 (MOLT-4 leukemia) 53.9 µM | GI50 (NCI-H23 lung) 92 µM | GI50 (NCI-H460 lung) > 100 µM | GI50 (NCI-H522 lung) > 100 µM | GI50 (OVCAR-3 ovarian) 756 nM | GI50 (OVCAR-4 ovarian) 78.8 µM | GI50 (OVCAR-5 ovarian) > 100 µM | GI50 (OVCAR-8 ovarian) 52.1 µM | GI50 (RPMI-8226 leukemia) > 100 µM | GI50 (RXF 393 renal) 45 µM | GI50 (RXF-631 renal) > 100 µM | GI50 (SF-268 CNS) > 100 µM | GI50 (SF-295 CNS) 1520 nM | GI50 (SK-MEL-2 melanoma) > 100 µM | GI50 (SK-MEL-28 melanoma) > 100 µM | GI50 (SK-MEL-5 melanoma) > 100 µM | GI50 (SK-OV-3 ovarian) > 100 µM | GI50 (SN12C renal) > 100 µM | GI50 (SNB-75 CNS) > 100 µM | GI50 (SNB-78 CNS) > 100 µM | GI50 (SW-620 colon) > 100 µM | GI50 (TK-10 renal) > 100 µM | GI50 (U251 CNS) > 100 µM | GI50 (UACC-257 melanoma) > 100 µM | GI50 (UACC-62 melanoma) > 100 µM | GI50 (XF 498 CNS) > 100 µM
3.25 µM: TGI (KM12 colon)
> 100 µM: TGI (786-0 renal) | TGI (A498 renal) | TGI (A549 NSCLC) | TGI (ACHN renal) | TGI (CAKI-1 renal) | TGI (CCRF-CEM leukemia) | TGI (COLO 205 colon) | TGI (DLD-1 colon) | TGI (DMS 114 small cell lung) | TGI (DMS 273 small cell lung) | TGI (EKVX NSCLC) | TGI (HCC-2998 colon) | TGI (HCT-15 colon) | TGI (HL-60(TB) leukemia) | TGI (HOP-62 NSCLC) | TGI (HOP-92 NSCLC) | TGI (HT29 colon) | TGI (IGROV1 ovarian) | TGI (K-562 leukemia) | TGI (KM20L2 colon) | TGI (LOX IMVI melanoma) | TGI (LXFL 529 NSCLC) | TGI (M14 melanoma) | TGI (M19-MEL melanoma) | TGI (MALME-3M melanoma) | TGI (MOLT-4 leukemia) | TGI (NCI-H23 lung) | TGI (NCI-H460 lung) | TGI (NCI-H522 lung) | TGI (OVCAR-3 ovarian) | TGI (OVCAR-4 ovarian) | TGI (OVCAR-5 ovarian) | TGI (OVCAR-8 ovarian) | TGI (RPMI-8226 leukemia) | TGI (RXF 393 renal) | TGI (RXF-631 renal) | TGI (SF-268 CNS) | TGI (SF-295 CNS) | TGI (SK-MEL-2 melanoma) | TGI (SK-MEL-28 melanoma) | TGI (SK-MEL-5 melanoma) | TGI (SK-OV-3 ovarian) | TGI (SN12C renal) | TGI (SNB-75 CNS) | TGI (SNB-78 CNS) | TGI (SW-620 colon) | TGI (TK-10 renal) | TGI (U251 CNS) | TGI (UACC-257 melanoma) | TGI (UACC-62 melanoma) | TGI (XF 498 CNS)
